pKi: −log10 of the molar value.
Key:
[1] = biological target: T1, histamine H4 receptor (Homo sapiens, UniProt Q9H3N8); test: In vitro histamine H4 potency in FLIPR (Ca2+ flux, HEK-293 cells coexpressing Gαqi5); format: cell-based; conditions: for Potency: Kb values for antagonists and inverse agonists, block of histamine-induced fluorescence
T1 construct: expressed in transfected cells
From the text: There are many methods available to show the effectiveness of compounds as histamine H4 receptor ligands. Histamine H4 receptors from mammalian species have been cloned. Methods to clone, express, and assess the potency and functional activity of such cloned genes are well known to those skilled in the art of molecular biology. Examples of methods of cloning and expressing histamine H4 receptors, and of assessing the potency and functional activity are described in Nguyen, et al. Molecular Pharmacology (2001) vol. 59 pp. 427-433; Zhu, et al. Molecular Pharmacology (2001) vol. 59 pp. 434-441; Coge, et al., Biochemical and Biophysical Research Communications (2001) vol. 284, pp. 301-309; Liu, et al. Molecular Pharmacology (2001) vol. 59 pp. 420-426; Liu, et al. Journal of Pharmacology and Experimental Therapeutics (2001) v. 299, pp. 121-130; and Thurmond, et al. Journal of Pharmacology and Experimental Therapeutics (2004) v. 309, pp. 404-413. In the present case, to determine the potency and effectiveness of representative compounds of this invention as histamine-H4 receptor ligands (H4 receptor ligands), the following tests were conducted according to previously described methods (see Esbenshade, et al., Biochemical Pharmacology (2004), vol. 68, pp. 933-945, and in Krueger, et al., Journal of Pharmacology and Experimental Therapeutics (2005) v. 314, pp. 271-281): histamine H4 receptors were cloned and stably expressed in HEK-293 (human embryonic kidney) cells coexpressing a Gαqi5. Before testing, cells are loaded with a Ca^+2 sensitive fluorescent dye, in this case Fluo-4 (Invitrogen, Carlsbad, Calif.). In the case of partial agonist or agonist ligands, addition of compound to the cells leads to the increase in intracellular Ca^+2 which is detected by FLIPR (Fluorescence Imaging Plate Reader; Molecular Devices, Sunnyvale, Calif.) technology. In a similar manner, compounds that are antagonists or inverse agonists, block the increase in fluorescence induced by the full histamine H4 agonist histamine, and partial agonists reduce the amount of fluorescence induced by the full histamine H4 agonist histamine. The fluorescence intensities measured before addition of the test compound are subtracted from the fluorescence intensities at later time points. Peak response values determined at each concentration of ligand are expressed as a percentage of the response obtained with the full agonist histamine. Concentration versus response data are analyzed to obtain compound potency as Kb values for antagonists and inverse agonists and as EC50 values for partial agonists.

[2] = biological target: T1, histamine H4 receptor; test: [3H]-histamine competition binding assay, membranes of HEK-293 cells transfected with histamine H4 receptor; conditions: displacing 3H-histamine; Ki by Cheng-Prusoff equation; read-out: Potency
Procedure: The potency of compounds of the invention in displacing ^3H-histamine in competition binding assays is assessed by methods described in Esbenshade, et al., Biochemical Pharmacology (2004), vol. 68, pp. 933-945. In this assay, membranes were prepared from HEK-293 cells transiently transfected with the pCINeo expression vector harboring the histamine H4 receptor by homogenization of the cells on ice in TE buffer (50 mM Tris-HCl buffer, pH 7.4, containing 5 mM EDTA), 1 mM benzamidine, 2 μg/mL aprotinin, 1 μg/mL leupeptin, and 1 μg/mL pepstatin. The homogenate was centrifuged at 40,000 g for 20 minutes at 4° C. This step was repeated, and the resulting pellet was resuspended in TE buffer. Aliquots were frozen at −70° C. until needed. On the day of assay, membranes were thawed and diluted with TE buffer. Competition radioligand binding assays were performed with increasing concentrations of test compound in the presence of [^3H]-histamine incubated at 25° C. for 1 hour in a total volume of 0.5 mL of 50 mM Tris, 5 mM EDTA, pH 7.4. All binding reactions were terminated by filtration under vacuum onto polyethylenimine (0.3%) presoaked Unifilters (PerkinElmer Life Sciences) or Whatman GF/B filters (Whatman, Clifton, N.J.) followed by three brief washes with 4 mL of ice-cold TE buffer. Bound radiolabel was determined by liquid scintillation counting. For all of the radioligand competition binding assays, IC50 values and Hill slopes were determined by Hill transformation of the data and Ki values were determined by the Cheng-Prusoff equation. The following table of representative histamine H4 receptor ligands is provided, along with potency values: […]

T1 sequence (Q9H3N8 whole entry, species assumed): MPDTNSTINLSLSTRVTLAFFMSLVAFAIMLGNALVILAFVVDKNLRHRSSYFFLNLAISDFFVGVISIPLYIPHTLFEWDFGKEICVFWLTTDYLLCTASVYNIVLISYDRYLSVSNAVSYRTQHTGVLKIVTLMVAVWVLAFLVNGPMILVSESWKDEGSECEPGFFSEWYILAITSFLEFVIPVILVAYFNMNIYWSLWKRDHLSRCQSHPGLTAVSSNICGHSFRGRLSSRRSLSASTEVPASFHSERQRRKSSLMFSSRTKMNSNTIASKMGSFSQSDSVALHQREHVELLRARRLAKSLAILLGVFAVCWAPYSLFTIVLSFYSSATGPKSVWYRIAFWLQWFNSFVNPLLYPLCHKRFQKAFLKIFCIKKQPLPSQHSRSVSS

Structure (SMILES)	Potency [1] [nM]	pKi [2]	EC50 ([1]; EC50 values for partial agonists) [nM]
Nc1nccc(NCCNc2nc(N)nc3c2CCCc2ccccc2-3)n1 [Example 1, N^4-{2-[(2-aminopyrimidin-4-yl)amino]ethyl}-6,7-dihydro-5H-benzo[6,7]cyclohepta[1,2-d]pyrimidine-2,4-diamine]	204		
CN(CCNc1ccnc(N)n1)c1nc(N)nc2c1CCCc1ccccc1-2 [Example 2, N^4-{2-[(2-aminopyrimidin-4-yl)amino]ethyl}-N^4-methyl-6,7-dihydro-5H-benzo[6,7]cyclohepta[1,2-d]pyrimidine-2,4-diamine]	25	8.46	
Nc1nccc(NCCCNc2nc(N)nc3c2CCCc2ccccc2-3)n1 [Example 3, N^4-{3-[(2-aminopyrimidin-4-yl)amino]propyl}-6,7-dihydro-5H-benzo[6,7]cyclohepta[1,2-d]pyrimidine-2,4-diamine]	309		
Nc1ccnc(NCCNc2nc(N)nc3c2CCCc2ccccc2-3)n1 [Example 4, N^4-{2-[(4-aminopyrimidin-2-yl)amino]ethyl}-6,7-dihydro-5H-benzo[6,7]cyclohepta[1,2-d]pyrimidine-2,4-diamine]	1349		
Nc1nccc(NCCNc2cc(-c3ccccc3)nc(N)n2)n1 [Example 5, N^4-{2-[(2-aminopyrimidin-4-yl)amino]ethyl}-6-phenylpyrimidine-2,4-diamine]	8.7		
Nc1nccc(NCCNc2cc(-c3cccc(Cl)c3)nc(N)n2)n1 [Example 6, N^4-{2-[(2-aminopyrimidin-4-yl)amino]ethyl}-6-(3-chlorophenyl)pyrimidine-2,4-diamine]	2.5	8.18	
Nc1nccc(NCCNc2cc(-c3cc(Cl)cc(Cl)c3)nc(N)n2)n1 [Example 7, N^4-{2-[(2-aminopyrimidin-4-yl)amino]ethyl}-6-(3,5-dichlorophenyl)pyrimidine-2,4-diamine]	69		
COc1ccc(Cl)cc1-c1cc(NCCNc2ccnc(N)n2)nc(N)n1 [Example 8, N^4-{2-[(2-aminopyrimidin-4-yl)amino]ethyl}-6-(5-chloro-2-methoxyphenyl)pyrimidine-2,4-diamine]	589		
Nc1nccc(NCCNc2cc(/C=C/c3ccccc3)nc(N)n2)n1 [Example 9, N^4-{2-[(2-aminopyrimidin-4-yl)amino]ethyl}-6-[(E)-2-phenylvinyl]pyrimidine-2,4-diamine]	85	7.70	
Nc1nccc(NCCNc2nc(N)nc3c2CCCC32CCCC2)n1 [Example 10, N^4′-{2-[(2-aminopyrimidin-4-yl)amino]ethyl}-6′,7′-dihydro-5′H-spiro[cyclopentane-1,8′-quinazoline]-2′,4′-diamine]	32	8.13	
Nc1nccc(NCCNc2nc(N)nc3c2CCCC(c2ccccc2)C3)n1 (stereo not shown) [Example 11, N^4-{2-[(2-aminopyrimidin-4-yl)amino]ethyl}-8-phenyl-6,7,8,9-tetrahydro-5H-cyclohepta[d]pyrimidine-2,4-diamine]			2340
Nc1nccc(NCCNc2ncnc3c2oc2ccccc23)n1 [Example 12, N^4-[2-([1]benzofuro[3,2-d]pyrimidin-4-ylamino)ethyl]pyrimidine-2,4-diamine]	2089		

Source: US8268846B2, “Amino heterocyclic linked pyrimidine derivatives” (Abbott Laboratories, priority 2008, dated 2012)
